Data reported in the NIST ThermoML archive (doi:10.1016/j.jct.2006.07.015).

What was measured:
[1] = 298.15 K, 101.33 kPa, Liquid; for viscosity: Capillary tube (Ostwald / Ubbelohde) method; for speed of sound: Sing-around technique in a fixed-path interferometer; for mass density: Vibrating tube method
[2] = xn = mol fraction of the nth substance listed; settings: 298.15 K, 101 kPa, Liquid; for viscosity: Capillary tube (Ostwald / Ubbelohde) method; for speed of sound: Sing-around technique in a fixed-path interferometer; for mass density: Vibrating tube method

CCCCCCCO [heptan-1-ol]
[1]
Settings | mass density [kg/m3] | speed of sound [m/s] | viscosity [mPa·s]
– | 818.77 | 1329 | 6.041

CCCCCCCO [heptan-1-ol] + CC1CCCCC1
[2]
Settings | mass density [kg/m3] | speed of sound [m/s] | viscosity [mPa·s]
x1 = 0.1 | 770.2 | – | –
x1 = 0.1009 | – | – | 0.797
x1 = 0.1031 | – | 1217 | –
x1 = 0.1506 | 773.03 | – | –
x1 = 0.2001 | 775.76 | – | –
x1 = 0.2007 | – | – | 0.956
x1 = 0.2024 | – | 1225 | –
x1 = 0.3006 | – | 1236 | –
x1 = 0.3011 | 781.37 | – | 1.174
x1 = 0.4 | 786.91 | – | –
x1 = 0.4011 | – | – | 1.461
x1 = 0.4033 | – | 1247 | –
x1 = 0.449 | 789.61 | – | –
x1 = 0.4501 | – | – | 1.64
x1 = 0.4973 | – | 1259 | –
x1 = 0.4985 | – | – | 1.839
x1 = 0.5002 | 792.45 | – | –
x1 = 0.5394 | – | 1264 | –
x1 = 0.5497 | 795.18 | – | –
x1 = 0.5999 | 797.98 | – | –
x1 = 0.6026 | – | 1273 | –
x1 = 0.6033 | – | – | 2.384
x1 = 0.6503 | 800.71 | – | –
x1 = 0.7007 | 803.42 | – | –
x1 = 0.7045 | – | 1287 | –
x1 = 0.7417 | – | – | 3.369
x1 = 0.7972 | – | 1300 | –
x1 = 0.7985 | – | – | 3.875
x1 = 0.8 | 808.68 | – | –
x1 = 0.8495 | 811.24 | – | –
x1 = 0.8951 | – | 1315 | –
x1 = 0.8998 | 813.8 | – | –
x1 = 0.9006 | – | – | 4.922
x1 = 1 | – | 1329 | –

CCCCCCCO [heptan-1-ol] + ClC(Cl)=C(Cl)Cl
Settings | speed of sound [m/s]
[2], x1 = 1 | 1329

CC1CCCCC1 [methylcyclohexane]
[1]
Settings | mass density [kg/m3] | speed of sound [m/s] | viscosity [mPa·s]
– | 764.99 | 1209 | 0.684

CC1CCCCC1 [methylcyclohexane] + CCCCCCCO
Settings | speed of sound [m/s]
[2], x2 = 0 | 1215

CC1CCCCC1 [methylcyclohexane] + ClC(Cl)=C(Cl)Cl
Settings | speed of sound [m/s]
[2], x2 = 0 | 1215

ClC(Cl)=C(Cl)Cl [tetrachloroethene]
[1]
Settings | mass density [kg/m3] | speed of sound [m/s] | viscosity [mPa·s]
– | 1614.49 | 1039 | 0.847

ClC(Cl)=C(Cl)Cl [tetrachloroethene] + CC1CCCCC1
[2]
Settings | mass density [kg/m3] | speed of sound [m/s] | viscosity [mPa·s]
x1 = 0.0999 | – | – | 0.69
x1 = 0.1007 | 834.38 | – | –
x1 = 0.1924 | 900.06 | – | –
x1 = 0.2 | 905.67 | – | –
x1 = 0.2068 | – | – | 0.698
x1 = 0.2439 | – | 1184 | –
x1 = 0.2504 | 942.96 | – | –
x1 = 0.2505 | – | – | 0.701
x1 = 0.2982 | – | – | 0.705
x1 = 0.3011 | 981.34 | – | –
x1 = 0.3029 | 982.75 | – | –
x1 = 0.3944 | – | – | 0.716
x1 = 0.4001 | 1058.76 | – | –
x1 = 0.4173 | – | 1156 | –
x1 = 0.4897 | – | 1146 | –
x1 = 0.4996 | – | – | 0.728
x1 = 0.5009 | 1141.4 | – | –
x1 = 0.5494 | – | 1136 | –
x1 = 0.5503 | 1183.38 | – | –
x1 = 0.5984 | 1225.08 | – | –
x1 = 0.6016 | – | – | 0.746
x1 = 0.6496 | 1270.62 | – | –
x1 = 0.6549 | – | 1116 | –
x1 = 0.7007 | – | – | 0.765
x1 = 0.7014 | 1317.87 | – | –
x1 = 0.7372 | – | 1098 | –
x1 = 0.7786 | – | 1089 | –
x1 = 0.7995 | 1410.5 | – | –
x1 = 0.8008 | – | – | 0.789
x1 = 0.8104 | – | 1082 | –
x1 = 0.8418 | – | 1075 | –
x1 = 0.8489 | 1458.9 | – | –
x1 = 0.8693 | – | 1069 | –
x1 = 0.8986 | 1508.67 | – | –
x1 = 0.8996 | – | – | 0.816
x1 = 0.9188 | – | 1057 | –
x1 = 1 | – | 1039 | –

ClC(Cl)=C(Cl)Cl [tetrachloroethene] + CCCCCCCO
[2]
Settings | mass density [kg/m3] | speed of sound [m/s] | viscosity [mPa·s]
x2 = 0 | – | 1039 | –
x2 = 0.093 | 1514.31 | – | –
x2 = 0.0967 | – | 1050 | –
x2 = 0.102 | – | – | 0.995
x2 = 0.1957 | – | 1069 | –
x2 = 0.1994 | 1409 | – | –
x2 = 0.2118 | – | – | 1.222
x2 = 0.2492 | – | 1082 | –
x2 = 0.2498 | – | – | 1.32
x2 = 0.2502 | 1361.6 | – | –
x2 = 0.2952 | – | 1093 | –
x2 = 0.2986 | 1318.1 | – | –
x2 = 0.3015 | – | – | 1.457
x2 = 0.3905 | – | 1120 | –
x2 = 0.3979 | 1233.3 | – | –
x2 = 0.3997 | – | – | 1.795
x2 = 0.4452 | 1194.85 | – | –
x2 = 0.4667 | – | 1142 | –
x2 = 0.4983 | 1153.02 | – | –
x2 = 0.4998 | – | – | 2.24
x2 = 0.5478 | – | – | 2.485
x2 = 0.5495 | 1114.05 | – | –
x2 = 0.5531 | – | 1169 | –
x2 = 0.587 | – | – | 2.703
x2 = 0.5894 | – | 1178 | –
x2 = 0.5995 | 1077.22 | – | –
x2 = 0.6488 | 1042 | – | –
x2 = 0.6507 | – | 1200 | –
x2 = 0.6969 | 1008.69 | – | –
x2 = 0.6995 | – | – | 3.451
x2 = 0.7002 | – | 1217 | –
x2 = 0.74 | – | – | 3.742
x2 = 0.7932 | 944.69 | – | –
x2 = 0.7954 | – | – | 4.184
x2 = 0.7989 | – | 1252 | –
x2 = 0.8497 | 908.83 | – | –
x2 = 0.8969 | – | 1290 | –
x2 = 0.8985 | – | – | 5.06
x2 = 0.8986 | 878.72 | – | –
